PubChem BioAssay AID2060900 (Molecular Pharmacology Branch, DTP, NCI, 2025)

System: 521955-158-R2-J5-PDC complex spheroids, viability
Experiment: Anticancer human tumor 521955-158-R2-J5-PDC patient-derived pancreatic carcinoma cell line growth inhibition [RAS]
Conditions: for IC50: curve of first compound; for viability, T/C: stronger effect = lower value; active = viability on the fitted dose curve at most 10% of control; inactive = the rest
How it was run: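 Tumour cells grown as complex spheroids with HUVEC endothelial cells and mesenchymal stem cells, treated with RAS pathway inhibitor combinations. Each agent spans half-log steps from near clinical Cmax, or 10 microM where Cmax is unknown.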

[1] = second compound 0.0316 µM, first compound 0.0316 µM
[2] = second compound 0.0316 µM, first compound 0.1 µM
[3] = second compound 0.0316 µM, first compound 0.316 µM
[4] = second compound 0.0316 µM, first compound 1 µM
[5] = second compound 0.1 µM, first compound 0.0316 µM
[6] = second compound 0.1 µM, first compound 0.1 µM
[7] = second compound 0.1 µM, first compound 0.316 µM
[8] = second compound 0.1 µM, first compound 1 µM
[9] = second compound 0.316 µM, first compound 0.0316 µM
[10] = second compound 0.316 µM, first compound 0.1 µM
[11] = second compound 0.316 µM, first compound 0.316 µM
[12] = second compound 0.316 µM, first compound 1 µM
[13] = second compound 1 µM, first compound 0.0316 µM
[14] = second compound 1 µM, first compound 0.1 µM
[15] = second compound 1 µM, first compound 0.316 µM
[16] = second compound 1 µM, first compound 1 µM
[17] = second compound 3.16 µM, first compound 0.0316 µM
[18] = second compound 3.16 µM, first compound 0.1 µM
[19] = second compound 3.16 µM, first compound 0.316 µM
[20] = second compound 3.16 µM, first compound 1 µM
[21] = second compound 10 µM, first compound 0.0316 µM
[22] = second compound 10 µM, first compound 0.1 µM
[23] = second compound 10 µM, first compound 0.316 µM
[24] = second compound 10 µM, first compound 1 µM
[25] = second compound 0.0316 µM, first compound 0.000949 µM
[26] = second compound 0.0316 µM, first compound 0.003 µM
[27] = second compound 0.0316 µM, first compound 0.00949 µM
[28] = second compound 0.0316 µM, first compound 0.03 µM
[29] = second compound 0.0316 µM, first compound 0.0949 µM
[30] = second compound 0.0316 µM, first compound 0.3 µM
[31] = second compound 0.1 µM, first compound 0.000949 µM
[32] = second compound 0.1 µM, first compound 0.003 µM
[33] = second compound 0.1 µM, first compound 0.00949 µM
[34] = second compound 0.1 µM, first compound 0.03 µM
[35] = second compound 0.1 µM, first compound 0.0949 µM
[36] = second compound 0.1 µM, first compound 0.3 µM
[37] = second compound 0.316 µM, first compound 0.000949 µM
[38] = second compound 0.316 µM, first compound 0.003 µM
[39] = second compound 0.316 µM, first compound 0.00949 µM
[40] = second compound 0.316 µM, first compound 0.03 µM
[41] = second compound 0.316 µM, first compound 0.0949 µM
[42] = second compound 0.316 µM, first compound 0.3 µM
[43] = second compound 1 µM, first compound 0.000949 µM
[44] = second compound 1 µM, first compound 0.003 µM
[45] = second compound 1 µM, first compound 0.00949 µM
[46] = second compound 1 µM, first compound 0.03 µM
[47] = second compound 1 µM, first compound 0.0949 µM
[48] = second compound 1 µM, first compound 0.3 µM
[49] = second compound 3.16 µM, first compound 0.000949 µM
[50] = second compound 3.16 µM, first compound 0.003 µM
[51] = second compound 3.16 µM, first compound 0.00949 µM
[52] = second compound 3.16 µM, first compound 0.03 µM
[53] = second compound 3.16 µM, first compound 0.0949 µM
[54] = second compound 3.16 µM, first compound 0.3 µM
[55] = second compound 10 µM, first compound 0.000949 µM
[56] = second compound 10 µM, first compound 0.003 µM
[57] = second compound 10 µM, first compound 0.00949 µM
[58] = second compound 10 µM, first compound 0.03 µM
[59] = second compound 10 µM, first compound 0.0949 µM
[60] = second compound 10 µM, first compound 0.3 µM
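Note: compound exposure lasted seven days before the viability read.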
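Throughout, for viability, T/C: spheroids also contain HUVEC endothelial cells and mesenchymal stem cells as stroma.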

C=CC(=O)N1CCN(c2nc(OCC3CCCN3C)nc3c(F)c(-c4nc(N)cc(C)c4C(F)(F)F)c(Cl)cc23)C(C)C1 (stereo not drawn) + C#Cc1c(F)ccc2cc(O)cc(-c3ncc4c(N5CC6CCC(C5)N6)nc(OCC56CCCN5CC(F)C6)nc4c3F)c12
< 3.16 nM: IC50 (second compound 3.16 µM) | IC50 (second compound 10 µM)
> 1000 nM: IC50 (second compound 0.0316 µM) | IC50 (second compound 0.1 µM) | IC50 (second compound 0.316 µM) | IC50 (second compound 1 µM)
inactive: viability, T/C (second compound 0.0316 µM, first compound 0.00316 µM) 61.3% | viability, T/C (second compound 0.0316 µM, first compound 0.01 µM) 63.1% | viability, T/C [1] 74.1% | viability, T/C [2] 57.2% | viability, T/C [3] 55.6% | viability, T/C [4] 71.8% | viability, T/C (second compound 0.1 µM, first compound 0.00316 µM) 55.9% | viability, T/C (second compound 0.1 µM, first compound 0.01 µM) 64.8% | viability, T/C [5] 58.7% | viability, T/C [6] 48.8% | viability, T/C [7] 56.6% | viability, T/C [8] 61.8% | viability, T/C (second compound 0.316 µM, first compound 0.00316 µM) 53.2% | viability, T/C (second compound 0.316 µM, first compound 0.01 µM) 56.8% | viability, T/C [9] 58.5% | viability, T/C [10] 54.8% | viability, T/C [11] 52.8% | viability, T/C [12] 52.1% | viability, T/C (second compound 1 µM, first compound 0.00316 µM) 48% | viability, T/C (second compound 1 µM, first compound 0.01 µM) 72.6% | viability, T/C [13] 47.1% | viability, T/C [14] 60.7% | viability, T/C [15] 53.2% | viability, T/C [16] 59.2% | viability, T/C (second compound 3.16 µM, first compound 0.00316 µM) 42.4% | viability, T/C (second compound 3.16 µM, first compound 0.01 µM) 52.1% | viability, T/C [17] 54.8% | viability, T/C [18] 56.9% | viability, T/C [19] 50.6% | viability, T/C [20] 47.2% | viability, T/C (second compound 10 µM, first compound 0.00316 µM) 40% | viability, T/C (second compound 10 µM, first compound 0.01 µM) 56.9% | viability, T/C [21] 38.3% | viability, T/C [22] 43.6% | viability, T/C [23] 39.3% | viability, T/C [24] 29.8%

CC(=O)OC12COC1CC(O)C1(C)C(=O)C(O)C3=C(C)C(OC(=O)C(O)C(NC(=O)OC(C)(C)C)c4ccccc4)CC(O)(C(OC(=O)c4ccccc4)C21)C3(C)C (stereo not drawn) + C#Cc1c(F)ccc2cc(O)cc(-c3ncc4c(N5CC6CCC(C5)N6)nc(OCC56CCCN5CC(F)C6)nc4c3F)c12
< 31.6 nM: IC50 (second compound 0.0316 µM) | IC50 (second compound 0.1 µM) | IC50 (second compound 0.316 µM) | IC50 (second compound 1 µM) | IC50 (second compound 3.16 µM) | IC50 (second compound 10 µM)
inactive: viability, T/C [1] 32.5% | viability, T/C [2] 35.9% | viability, T/C [3] 32.6% | viability, T/C [4] 30.2% | viability, T/C (second compound 0.0316 µM, first compound 3.16 µM) 37.5% | viability, T/C (second compound 0.0316 µM, first compound 10 µM) 47.2% | viability, T/C [5] 33.3% | viability, T/C [6] 39.6% | viability, T/C [7] 35.2% | viability, T/C [8] 37.7% | viability, T/C (second compound 0.1 µM, first compound 3.16 µM) 35.6% | viability, T/C (second compound 0.1 µM, first compound 10 µM) 40.4% | viability, T/C [9] 33.2% | viability, T/C [10] 31.7% | viability, T/C [11] 28.6% | viability, T/C [12] 30.9% | viability, T/C (second compound 0.316 µM, first compound 3.16 µM) 37% | viability, T/C (second compound 0.316 µM, first compound 10 µM) 38.7% | viability, T/C [13] 21.7% | viability, T/C [14] 34.3% | viability, T/C [15] 32.6% | viability, T/C [16] 29.4% | viability, T/C (second compound 1 µM, first compound 3.16 µM) 51.5% | viability, T/C (second compound 1 µM, first compound 10 µM) 40.5% | viability, T/C [17] 27.4% | viability, T/C [18] 33.3% | viability, T/C [19] 30.8% | viability, T/C [20] 33.4% | viability, T/C (second compound 3.16 µM, first compound 3.16 µM) 31.1% | viability, T/C (second compound 3.16 µM, first compound 10 µM) 33% | viability, T/C [21] 24.8% | viability, T/C [22] 34.1% | viability, T/C [23] 28.3% | viability, T/C [24] 28.7% | viability, T/C (second compound 10 µM, first compound 3.16 µM) 32.1% | viability, T/C (second compound 10 µM, first compound 10 µM) 25.1%

CC1(C)CCC(Nc2ncc(C(F)(F)F)c(-c3c[nH]c4c(P(C)(C)=O)c(C#N)ccc34)n2)CN1 (stereo not drawn) + C#Cc1c(F)ccc2cc(O)cc(-c3ncc4c(N5CC6CCC(C5)N6)nc(OCC56CCCN5CC(F)C6)nc4c3F)c12
inactive: viability, T/C [25] 43.7% | viability, T/C [26] 38.4% | viability, T/C [27] 37.1% | viability, T/C [28] 31.4% | viability, T/C [29] 43.7% | viability, T/C [30] 41.9% | viability, T/C [31] 43.5% | viability, T/C [32] 40.8% | viability, T/C [33] 33% | viability, T/C [34] 29.6% | viability, T/C [35] 39.7% | viability, T/C [36] 33.8% | viability, T/C [37] 40.4% | viability, T/C [38] 37.5% | viability, T/C [39] 29.9% | viability, T/C [40] 29.4% | viability, T/C [41] 30.3% | viability, T/C [42] 29.2% | viability, T/C [43] 38.5% | viability, T/C [44] 31.8% | viability, T/C [45] 25.5% | viability, T/C [46] 26.8% | viability, T/C [47] 24.3% | viability, T/C [48] 25% | viability, T/C [49] 33.5% | viability, T/C [50] 27.8% | viability, T/C [51] 25.1% | viability, T/C [52] 25% | viability, T/C [53] 21.1% | viability, T/C [54] 24.8% | viability, T/C [55] 29.7% | viability, T/C [56] 25.9% | viability, T/C [57] 20.2% | viability, T/C [58] 21.2% | viability, T/C [59] 21.7% | viability, T/C [60] 20.1%
< 0.949 nM: IC50 (second compound 0.0316 µM) | IC50 (second compound 0.1 µM) | IC50 (second compound 0.316 µM) | IC50 (second compound 1 µM) | IC50 (second compound 3.16 µM) | IC50 (second compound 10 µM)

CCc1c2c(nc3ccc(O)cc13)-c1cc3c(c(=O)n1C2)COC(=O)[C@]3(O)CC + C#Cc1c(F)ccc2cc(O)cc(-c3ncc4c(N5CC6CCC(C5)N6)nc(OCC56CCCN5CC(F)C6)nc4c3F)c12
inactive: viability, T/C [25] 68.1% | viability, T/C [26] 40.9% | viability, T/C [27] 35.7% | viability, T/C [28] 20.7% | viability, T/C [29] 15.3% | viability, T/C [30] 9.62% | viability, T/C [31] 43.4% | viability, T/C [32] 34.2% | viability, T/C [33] 26.9% | viability, T/C [34] 22.5% | viability, T/C [35] 11.4% | viability, T/C [36] 12.5% | viability, T/C [37] 51.9% | viability, T/C [38] 39.5% | viability, T/C [39] 23.8% | viability, T/C [40] 18.3% | viability, T/C [41] 14.3% | viability, T/C [43] 41.1% | viability, T/C [44] 36.1% | viability, T/C [45] 18.4% | viability, T/C [46] 16.6% | viability, T/C [47] 11.3% | viability, T/C [48] 10.6% | viability, T/C [49] 41.4% | viability, T/C [50] 34.6% | viability, T/C [51] 24.7% | viability, T/C [52] 15.8% | viability, T/C [53] 12.8% | viability, T/C [55] 30% | viability, T/C [56] 23% | viability, T/C [57] 16.8% | viability, T/C [58] 15.5% | viability, T/C [59] 11.2% | viability, T/C [60] 11.8%
2.36 nM: IC50 (second compound 0.0316 µM)
active: viability, T/C [42] 8.89% | viability, T/C [54] 5.72%
< 0.949 nM: IC50 (second compound 0.1 µM) | IC50 (second compound 1 µM) | IC50 (second compound 3.16 µM) | IC50 (second compound 10 µM)
1.13 nM: IC50 (second compound 0.316 µM)
